Assay results published in patent publication US10793561B2, “1,8-naphthyridinone compounds and uses thereof” (NUVATION BIO INC., priority 2017, dated 2020).

What was measured:
adenosine A2A receptor [1] = target: T1, adenosine A2A receptor (Homo sapiens (Human), UniProt P29274); assay: Radioligand binding competition assay, adenosine A2A receptor; conditions: for inhibition at 0.3 µM: read-out: A2a binding % inh @ 300 nM; for inhibition at 3 µM / A2A radioligand binding competition assay % residual binding @ 3000 nM: 3000 nM compound; for inhibition at 3 µM: read-out: A2a binding % inh @ 3000 nM
Description: Binding of selected compounds to the adenosine A1, A2A, A2B, and A3 receptors was tested using a binding competition assay.
The general protocol for the radioligand binding competition assay was as follows. Competition binding was performed in duplicate in the wells of a 96 well plate (Master Block, Greiner, 786201) containing binding buffer (optimized for each receptor), membrane extracts (amount of protein/well optimized for each receptor), radiotracer (final concentration optimized for each receptor), and test compound. Nonspecific binding was determined by co-incubation with 200-fold excess of cold competitor. The samples were incubated in a final volume of 0.1 mL at 25° C. for 60 minutes and then filtered over filter plates. Filters were washed six times with 0.5 mL of ice-cold washing buffer (optimized for each receptor) and 50 μL of Microscint 20 (Packard) were added on each filter. The filter plates were sealed, incubated 15 min on an orbital shaker and scintillation counted with a TopCount for 30 sec/filter.
For the adenosine A2A receptor radioligand binding assay, the following modifications were made to the general protocol. GF/C filters (Perkin Elmer, 6005174), presoaked in 0.01% Brij for 2 h at room temperature were used. Filters were washed six times with 0.5 mL of ice-cold washing buffer (50 mM Tris pH 7.4) and 50 μL of Microscint 20 (Packard) was added in each well. The plates were then incubated for 15 min on an orbital shaker and then counted with a TopCount™ for 1 min/well.
Another radioligand binding assay was used to evaluate the binding affinity for the adenosine A2A receptor assay was performed in duplicate in the wells of a 384 plate. Assay buffer contained DPBS 500 mM, MgCl2 0.1 mM, and 1% DMSO. Membrane-bead suspension was prepared by mixing 25.98 μL of human adenosine A2A membrane preparation (Perkin Elmer, RBHA2AM400UA) at 33.4 pg/mL, 28 μL of ADA at 20 pg/mL, and 932 μL of SPA beads at 3.33 mg/mL) and incubated the mixture for 20 min at room temperature. Mixed 20 μL of radiotracer (^3H-SCH 58261) at 15 nM to each well containing test articles at various concentrations and centrifuge the plate at 1000 rpm for 1 minute. Added 30 μL of the membrane-bead suspension to each well. Sealed the plates and incubated for 1 hr at room temperature with vigorous mixing on a plate mixer. Plates were read on Microbeta^2 (Perkin Elmer, 2450-0010).
CHO-K1-A3 cell membranes, 1.5 μg/well; a binding buffer comprising HEPES 25 mM pH 7.4, MgCl2 5 mM, CaCl2 1 mM, 0.5% BSA; a wash buffer comprising HEPES 25 mM pH 7.4, MgCl2 5 mM, CaCl2 1 mM; a Unifilter GF/C—treated for 2 h with 0.5% BS; and 0.4 nM of ^125I-AB-MECA as the tracer. The results of the binding assay are shown in Table B1-1 and are shown as percent residual binding at a given concentration. Percent of residual binding means binding of a compound in the presence of competitor normalized to the amount of binding in the absence of competitor. […] For example, compound 1 strongly bound to A2A (30% residual binding at a concentration of 100 nM), A1 (−3% residual binding at 300 nM) and A2B, (−9% residual binding at 300 nM) but weakly bound to A3 (96% residual binding at 300 nM).

adenosine A2A receptor [2] = target: T1, adenosine A2A receptor; assay: cAMP assay in HEK-293 cells expressing human recombinant adenosine A2A receptor; format: cell-based; conditions: for inhibition at 0.3 µM / inhibition at 0.1 µM: HEK293; for inhibition at 0.3 µM: 300 nM compound, read-out: A2a cAMP % inh @ 300 nM; for inhibition at 0.1 µM: 100 nM compound, read-out: A2a cAMP % inh @ 100 nM
Description: The functional activity of compounds was tested using one of the two assays to detect the present of cAMP. Activation of G-protein coupled receptors (such as A2A) results in activation of adenylcyclase which converts ATP into cAMP which is used as a downstream signaling molecule. Therefore, molecules which act as GPCR (or specifically A2A receptor) antagonists cause a decrease in intracellular cAMP concentration.
Both assays used HEK-293 cells expressing human recombinant adenosine A2A receptor were grown prior to the test in media without antibiotic. Assay 1: The cells were detached by gentle flushing with PBS-EDTA (5 mM EDTA), recovered by centrifugation and suspended in assay buffer (KRH: 5 mM KCl, 1.25 mM MgSO4, 124 mM NaCl, 25 mM HEPES, 13.3 mM Glucose, 1.25 mM KH2PO4, 1.45 mM CaCl2, 0.5 g/L BSA, supplemented with Rolipram).
12 μL of cells were mixed with 6 μL of the test compound at increasing concentrations and then incubated for 10 min. Thereafter 6 μL of the reference agonist was added at a final concentration corresponding to the historical EC80. The plates were then incubated for 30 min at room temperature. After addition of the lysis buffer and 1 hour incubation, cAMP concentrations were estimated, according to the manufacturer specification, with the HTRF® kit.
Assay 2: 100 nL of test articles at 100× of final concentration were transferred to assay plate by Echo. Cells were washed twice with 5 mL of PBS […]. After aspirating the PBS and adding 1.5 mL versine, cells were incubated at 37° C. for 2-5 min. After centrifugation, 4 mL of medium was added and adjusted cell density to 5,000 cells/well with stimulation buffer. 10 μL of cells were aliquoted to the assay plate, centrifuged at 1000 rpm for 1 minute, and incubated for 60 minutes at room temperature. 5 μL 4× Eu-cAMP tracer solution and 5 μL 4× Ulight™-anti-cAMP solution were added to assay plate, followed by centrifugation and 60-minute incubation at room temperature. Plates were read on EnVision.

T1 sequence (P29274 whole entry): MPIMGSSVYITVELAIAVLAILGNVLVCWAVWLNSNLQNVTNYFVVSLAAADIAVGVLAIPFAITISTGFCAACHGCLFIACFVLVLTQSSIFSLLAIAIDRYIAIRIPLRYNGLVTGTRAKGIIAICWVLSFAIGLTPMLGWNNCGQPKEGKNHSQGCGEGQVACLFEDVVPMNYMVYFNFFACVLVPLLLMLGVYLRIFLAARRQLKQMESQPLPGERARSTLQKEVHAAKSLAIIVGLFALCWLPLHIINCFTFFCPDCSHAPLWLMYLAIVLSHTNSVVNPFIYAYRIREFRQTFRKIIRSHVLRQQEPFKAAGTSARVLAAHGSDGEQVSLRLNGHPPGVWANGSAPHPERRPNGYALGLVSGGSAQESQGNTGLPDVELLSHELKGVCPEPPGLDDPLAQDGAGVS

| inhibition at 0.1 µM (adenosine A2A receptor [2]) | A2A radioligand binding competition assay % residual binding @ 3000 nM (adenosine A2A receptor [1]) | SMILES | further results |
| --- | --- | --- | --- |
| – | – | O=c1ccc2cc(-c3ccc4[nH]c(=O)[nH]c4c3)c(-c3ccccc3)nc2[nH]1 [Compound No. 1.32, 6-(2-oxo-2,3-dihydro-1H-benzo[d]imidazol-5-yl)-7-phenyl-1,8-naphthyridin-2(1H)-one] | inhibition at 0.3 µM (adenosine A2A receptor [1]; 300 nM compound): 0% |
| – | – | Cc1cc(-c2cc3ccc(=O)[nH]c3nc2-c2ccccc2)cc(C)n1 [Compound No. 1.33, 6-(2,6-dimethylpyridin-4-yl)-7-phenyl-1,8-naphthyridin-2(1H)-one] | inhibition at 0.3 µM (adenosine A2A receptor [2]): 60%; inhibition at 3 µM (adenosine A2A receptor [1]): 30% |
| 54% | 45/ND/ND/ND % | O=c1cc[nH]c2nc(-c3ccccc3)c(-c3ccc4nccnc4c3)cc12 [Compound No. 1.15, 7-phenyl-6-(quinoxalin-6-yl)-1,8-naphthyridin-4(1H)-one] | – |
| – | – | Cc1ccn(-c2nc3[nH]ccc(=O)c3cc2-c2ccc3ncccc3c2)n1 [Compound No. 1.92, 7-(3-methyl-1H-pyrazol-1-yl)-6-(quinolin-6-yl)-1,8-naphthyridin-4(1H)-one] | IC50 (adenosine A2A receptor [2]; second cAMP table): 357 nM |
| 100% | 14/ND/ND/ND % | O=c1ccc2cc(-c3cc(Cl)c4ncccc4c3)c(-c3ccccc3)nc2[nH]1 [Compound No. 1.12, 6-(8-chloroquinolin-6-yl)-7-phenyl-1,8-naphthyridin-2 (1H)-one] | – |
| – | – | O=c1ccc2cc(-c3cccc(Cl)c3)c(-c3ccccc3)nc2[nH]1 [Compound No. 1.31, 6-(3-chlorophenyl)-7-phenyl-1,8-naphthyridin-2(1H)-one] | inhibition at 0.3 µM (adenosine A2A receptor [1]; 300 nM compound): 0% |
| 88% | – | O=c1cc[nH]c2nc(-c3ccco3)c(-c3ccc4[nH]cnc4c3)cc12 [Compound No. 1.27, 6-(1H-benzo[d]imidazol-5-yl)-7-(furan-2-yl)-1,8-naphthyridin-4(1H)-one] | – |
| – | – | O=c1cc[nH]c2nc(-c3ccccc3)c(-c3ccc4ncncc4c3)cc12 [Compound No. 1.101] | IC50 (adenosine A2A receptor [2]; second cAMP table): 182 nM; inhibition at 3 µM (adenosine A2A receptor [1]): 72% |
| 82% | 19% | O=c1ccc2cc(-c3ccc4ncccc4c3)c(-c3ccccc3)nc2[nH]1 [1.4, 7-phenyl-6-(quinolin-6-yl)-1,8-naphthyridin-2(1H)-one] | A2A radioligand binding competition assay % residual binding @ 100 nM (adenosine A2A receptor [1]; 100 nM compound): 71%; A2A radioligand binding competition assay % residual binding @ 300 nM (adenosine A2A receptor [1]; 300 nM compound): 79%; A2A radioligand binding competition assay % residual binding @ 1000 nM (adenosine A2A receptor [1]; 1000 nM compound): 17% |
| – | – | Cc1ccc(-c2nc3[nH]ccc(=O)c3cc2-c2ccc3ncsc3c2)o1 [Compound No. 1.98, 6-(benzo[d]thiazol-6-yl)-7-(5-methylfuran-2-yl)-1,8-naphthyridin-4(1H)-one] | IC50 (adenosine A2A receptor [2]; second cAMP table): 17.2 nM; inhibition at 3 µM (adenosine A2A receptor [1]): 85% |
| 46% | – | O=c1cc[nH]c2nc(-c3cccnc3)c(-c3ccc4ncccc4c3)cc12 [Compound No. 1.28, 7-(pyridin-3-yl)-6-(quinolin-6-yl)-1,8-naphthyridin-4(1H)-one] | – |
| 77% | 22/ND/ND/ND % | Cc1cc(-c2cc3c(=O)cc[nH]c3nc2-c2ccccc2)cc2cccnc12 [Compound No. 1.23, 6-(8-methylquinolin-6-yl)-7-phenyl-1,8-naphthyridin-4(1H)-one] | – |
| 43% | 57/ND/ND/ND % | O=c1ccc2cc(-c3ccc4[nH]cnc4c3)c(-c3ccccc3)nc2[nH]1 [Compound No. 1.6, 6-(1H-benzo[d]imidazol-5-yl)-7-phenyl-1,8-naphthyridin-2(1H)-one] | – |
| – | – | O=c1cc[nH]c2nc(-c3ccccc3)c(-c3ccc4[nH]ncc4c3)cc12 [Compound No. 1.102, 6-(3a,7a-dihydro-1H-indazol-5-yl)-7-phenyl-1,8-naphthyridin-4(1H)-one] | IC50 (adenosine A2A receptor [2]; second cAMP table): 292 nM; inhibition at 3 µM (adenosine A2A receptor [1]): 77% |
| – | – | Cc1cc(Cl)cc(-c2cc3ccc(=O)[nH]c3nc2-c2ccccc2)c1 [Compound No. 1.35, 6-(3-chloro-5-methylphenyl)-7-phenyl-1,8-naphthyridin-2(1H)-one] | inhibition at 0.3 µM (adenosine A2A receptor [2]): 12%; inhibition at 3 µM (adenosine A2A receptor [1]): 0% |
| 30% | 70/ND/ND/ND % | O=c1cc[nH]c2nc(-c3ccccc3)c(-c3ccc4cnccc4c3)cc12 [Compound No. 1.9, 6-(isoquinolin-6-yl)-7-phenyl-1,8-naphthyridin-4(1H)-one] | – |
| 64% | – | COc1cc(-c2cc3c(=O)cc[nH]c3nc2-c2ccccc2)cc2cccnc12 [Compound No. 1.26, 6-(8-methoxyquinolin-6-yl)-7-phenyl-1,8-naphthyridin-4(1H)-one] | – |
| – | – | O=c1cc[nH]c2nc(-c3ccccc3)c(-c3cccc(Cl)c3)cc12 [Compound No. 1.30, 6-(3-chlorophenyl)-7-phenyl-1,8-naphthyridin-4(1H)-one] | inhibition at 0.3 µM (adenosine A2A receptor [1]; 300 nM compound): 0% |
| – | – | O=c1ccc2cc(-c3ccncc3)c(-c3ccccc3)nc2[nH]1 [Compound No. 1.34, 7-phenyl-6-(pyridin-4-yl)-1,8-naphthyridin-2(1H)-one] | inhibition at 0.3 µM (adenosine A2A receptor [2]): 26%; inhibition at 3 µM (adenosine A2A receptor [1]): 30% |
| – | 29/ND/ND/ND % | O=c1cc[nH]c2nc(-c3ccccc3)c(-c3cc(Cl)c4ncccc4c3)cc12 [Compound No. 1.13, 6-(8-chloroquinolin-6-yl)-7-phenyl-1,8-naphthyridin-4(1H)-one] | IC50 (adenosine A2A receptor [2]; first cAMP table): 47.7 nM |
| 30% | 69/ND/ND/ND % | Cn1cnc2cc(-c3cc4c(=O)cc[nH]c4nc3-c3ccccc3)ccc21 [Compound No. 1.22, 6-(1-methyl-1H-benzo[d]imidazol-5-yl)-7-phenyl-1,8-naphthyridin-4(1H)-one] | – |

| SMILES | inhibition at 0.1 µM (adenosine A2A receptor [2]) | A2A radioligand binding competition assay % residual binding @ 3000 nM (adenosine A2A receptor [1]) | further results |
| --- | --- | --- | --- |
| Cc1ccc(-c2nc3[nH]c(=O)ccc3cc2-c2ccc3ncccc3c2)o1 [Compound No. 1.29, 7-(5-methylfuran-2-yl)-6-(quinolin-6-yl)-1,8-naphthyridin-2(1H)-one] | 77% | – | – |
| O=c1cc[nH]c2nc(-c3ccccc3)c(-c3ccc4ocnc4c3)cc12 [Compound No. 1.21, 6-(benzo[d]oxazol-5-yl)-7-phenyl-1,8-naphthyridin-4(1H)-one] | 45% | 54/ND/ND/ND % | – |
